Reference: ChEMBL document CHEMBL1201862, “PubChem BioAssay data set” (2004)
Activity calls are given as the source filed them.

Legend:
[1] = target: T1, E3 ubiquitin-protein ligase XIAP (Homo sapiens, UniProt P98170); test: small molecules displacing peptide from XIAP – biochemical, IAP family, fluorescence polarization (AID 1018); type: functional
[2] = target: T1, E3 ubiquitin-protein ligase XIAP; test: Counter Screen using XIAP-Bir3 for Chemical Antagonists of Bir1/2 domains of IAP-family anti-apoptotic proteins. [Related pubchem assays (depositor defined):AID1018, AID1449, AID1514, AID1638, AID1749, AID1750, AID488957, AID488963]
[3] = target: T2, X-box-binding protein 1 (Homo sapiens, UniProt P17861); type: functional, Cricetulus griseus;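 note: confirmatory dose-response counter-screen serving a CHOP assay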
T2 sequence (P17861 whole entry): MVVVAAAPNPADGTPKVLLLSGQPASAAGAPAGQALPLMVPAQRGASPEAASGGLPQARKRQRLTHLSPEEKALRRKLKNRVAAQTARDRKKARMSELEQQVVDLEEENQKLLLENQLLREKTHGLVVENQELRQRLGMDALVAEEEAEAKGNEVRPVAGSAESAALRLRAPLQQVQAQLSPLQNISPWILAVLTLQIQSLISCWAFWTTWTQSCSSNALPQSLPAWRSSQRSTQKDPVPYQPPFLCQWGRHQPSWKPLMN

[4] = target: T3, Aryl hydrocarbon receptor (Homo sapiens, UniProt P35869); test: Luminescence-based cell-based high throughput dose response assay for activators of the Aryl Hydrocarbon Receptor (AHR). [Related pubchem assays: 2796 (Primary screen (AHR activators in singlicate)), 2845 (Confirmation screen (AHR activators in triplicate)), 434939 (Counterscreen (PXR activators in triplicate)), 2804 (Summary (AHR activators))]; type: ADME
T3 sequence (P35869 whole entry): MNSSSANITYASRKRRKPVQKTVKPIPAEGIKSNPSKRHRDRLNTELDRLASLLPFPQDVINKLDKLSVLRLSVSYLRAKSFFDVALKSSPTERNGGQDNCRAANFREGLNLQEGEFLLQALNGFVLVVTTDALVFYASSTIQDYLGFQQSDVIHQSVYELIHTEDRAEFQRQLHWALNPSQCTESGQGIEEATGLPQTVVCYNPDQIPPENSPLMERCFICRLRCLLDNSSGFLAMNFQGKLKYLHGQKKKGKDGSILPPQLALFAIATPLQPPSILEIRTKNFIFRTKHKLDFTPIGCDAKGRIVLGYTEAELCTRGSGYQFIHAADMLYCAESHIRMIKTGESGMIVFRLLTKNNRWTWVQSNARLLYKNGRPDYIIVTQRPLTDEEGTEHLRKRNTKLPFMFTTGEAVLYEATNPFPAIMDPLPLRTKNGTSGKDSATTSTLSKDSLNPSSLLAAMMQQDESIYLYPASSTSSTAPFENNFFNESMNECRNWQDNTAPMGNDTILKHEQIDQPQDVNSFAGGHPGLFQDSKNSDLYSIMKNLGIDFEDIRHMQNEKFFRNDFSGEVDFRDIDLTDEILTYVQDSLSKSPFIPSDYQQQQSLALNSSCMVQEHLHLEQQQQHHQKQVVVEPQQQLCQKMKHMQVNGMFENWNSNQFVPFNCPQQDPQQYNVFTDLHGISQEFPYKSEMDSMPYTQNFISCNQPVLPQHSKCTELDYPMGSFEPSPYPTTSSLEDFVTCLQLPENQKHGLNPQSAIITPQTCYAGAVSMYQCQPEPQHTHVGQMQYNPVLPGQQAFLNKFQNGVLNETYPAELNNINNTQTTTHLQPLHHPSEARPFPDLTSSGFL

[5] = target: T4, Heat shock factor protein 1 (Mus musculus, UniProt P38532); test: decrease of HSF1-responsive luciferase luminescence – cell-based, NIH3T3, dose retest, confirmation (AID 2382); type: functional;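 note: NIH3T3 fibroblasts with HSF1-driven luciferase reporter stressed by proteasome inhibitor MG132; luminescence from HSF1-driven luciferase expression after 8 hours of MG132 stress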
T4 sequence (P38532 whole entry): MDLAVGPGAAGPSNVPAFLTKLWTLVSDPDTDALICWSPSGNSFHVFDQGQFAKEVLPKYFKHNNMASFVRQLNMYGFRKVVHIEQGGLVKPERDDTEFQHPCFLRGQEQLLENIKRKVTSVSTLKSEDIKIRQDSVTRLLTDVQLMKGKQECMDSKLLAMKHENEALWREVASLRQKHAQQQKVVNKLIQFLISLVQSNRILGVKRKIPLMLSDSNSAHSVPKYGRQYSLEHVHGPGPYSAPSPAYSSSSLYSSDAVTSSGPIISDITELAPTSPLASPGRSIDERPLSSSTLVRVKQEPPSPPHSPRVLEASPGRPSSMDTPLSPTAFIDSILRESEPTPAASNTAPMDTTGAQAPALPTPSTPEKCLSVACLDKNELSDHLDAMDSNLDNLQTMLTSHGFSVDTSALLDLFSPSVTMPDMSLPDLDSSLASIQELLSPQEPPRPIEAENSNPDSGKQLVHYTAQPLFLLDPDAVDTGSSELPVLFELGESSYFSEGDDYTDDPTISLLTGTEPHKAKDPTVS

[6] = target: T5, Caspase-6 (Homo sapiens, UniProt P55212); test: inhibition of CASP6 peptide cleavage – biochemical, VEID-R110 fluorescence, cherry-pick, dose response (AID 720632)
T5 sequence (P55212 whole entry): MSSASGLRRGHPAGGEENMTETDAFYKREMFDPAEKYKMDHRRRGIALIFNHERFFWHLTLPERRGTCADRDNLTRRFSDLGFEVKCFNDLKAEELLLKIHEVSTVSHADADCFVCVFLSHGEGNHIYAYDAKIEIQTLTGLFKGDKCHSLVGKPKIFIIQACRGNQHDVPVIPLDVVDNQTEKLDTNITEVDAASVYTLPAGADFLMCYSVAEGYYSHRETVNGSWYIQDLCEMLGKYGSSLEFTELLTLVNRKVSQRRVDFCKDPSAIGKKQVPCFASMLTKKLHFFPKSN

[7] = tested on: Streptococcus; test: GAS UMAA2166 growth inhibition – luminescence, BacTiterGlo, counter-screen for streptokinase expression inhibitor project, dose response (AID 1915); type: functional, organism-based;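 note: potency for reduction of bacterial viability or growth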
[8] = tested on: Streptococcus sp. 'group A'; test: Streptococcus pyogenes SK(-)GAS viability under kanamycin – luminescence, BacTiterGlo, confirmation, counter-screen for streptokinase expression inhibitor project, dose response (AID 1900); type: functional, organism-based

T1 sequence (P98170 whole entry): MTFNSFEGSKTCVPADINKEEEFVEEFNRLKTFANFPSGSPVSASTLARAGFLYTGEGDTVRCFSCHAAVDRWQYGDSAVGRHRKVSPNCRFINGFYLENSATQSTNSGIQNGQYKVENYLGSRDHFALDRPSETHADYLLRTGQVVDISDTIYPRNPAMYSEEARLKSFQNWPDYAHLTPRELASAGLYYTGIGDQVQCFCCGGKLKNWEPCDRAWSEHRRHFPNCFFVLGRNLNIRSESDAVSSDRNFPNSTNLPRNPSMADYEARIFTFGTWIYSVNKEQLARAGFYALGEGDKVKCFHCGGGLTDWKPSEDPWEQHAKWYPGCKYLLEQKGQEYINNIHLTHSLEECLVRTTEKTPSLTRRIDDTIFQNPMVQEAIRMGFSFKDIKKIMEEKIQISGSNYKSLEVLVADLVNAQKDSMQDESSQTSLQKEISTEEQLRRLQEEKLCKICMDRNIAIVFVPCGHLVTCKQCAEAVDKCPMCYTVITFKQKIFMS

`CN1CCN(c2ccccc2NC(=O)c2ccc(-c3cccc([N+](=O)[O-])c3)o2)CC1` was tested, and the IC50 [1] was > 100 µM (not active) and the IC50 [2] was > 100 µM (inactive).
With `Cn1c(-c2cccc(OCc3ccccc3)c2)nc2c1c(=O)[nH]c(=O)n2Cc1ccccc1` the “Absolute IC50 (XBP1)” value [3] was 10 µM.
In the case of `CCCC(=O)Nc1nn(C)c2nc3cc(C)ccc3cc12`, the EC50 [4] is reported as 0.458 µM (active).
For `COC(=O)c1ccccc1NC(=O)Cn1ccnc1`, the EC50 [4] was 2.18 µM (active).
With `CC(C)CC(NC(=O)c1ccco1)C(=O)Nc1ccc2c(c1)OCCO2` (stereo unspecified) the EC50 [5] was 11.3 µM (active), the IC50 [1] was > 100 µM (not active) and the IC50 [2] was > 100 µM (inactive).
For `Cc1cc(S(=O)(=O)N2CCN(Cc3ccccc3)CC2)c(C)s1`, the IC50 [1] was > 100 µM (not active) and the IC50 [2] was > 100 µM (inactive).
`O=C(O)COn1c(-c2ccccc2)nc2ccc([N+](=O)[O-])cc21` was tested, and the AC50 [6] was 5.23 µM (active) and the EC50 [4] was 4.82 µM (active).
With `CC[C@H]1OC(=O)[C@H](C)[C@@H](O[C@H]2C[C@@](C)(OC)[C@@H](O)[C@H](C)O2)[C@H](C)[C@@H](O[C@@H]2O[C@H](C)C[C@H](N(C)C)[C@H]2O)[C@](C)(O)C[C@@H](C)[C@@H]2N[C@@H](COCCOC)O[C@H]([C@H]2C)[C@]1(C)O` [DIRITHROMYCIN] the EC50 [7] was 0.117 µM (active), the EC50 [8] was < 0.06 µM (active) and the IC50 [1] was > 100 µM (not active). The IC50 [2] was > 100 µM (inactive).
